# Like-named read-outs stand apart in the source and are kept apart here.
# How the values were obtained:
# [1] = system: Escherichia coli (E.coli) JC-2; assay: In vitro sensitivity test (agar dilution method); assay type: cell-based; conditions: 37°C, 20 to 24 hours
# Protocol: (§1) Survey of the sensitivity of the compound (I) to various strains of microorganisms was performed by a liquid dilution method […] an agar dilution method, in which the bacteria used were of animal origin and included the following strains (15 strains out of 11 bacteria): Chicken-origin strain: Mycoplasma gallisepticum (MG), Mycoplasma synoviae (MS), Hemophilus paragallinarum (H.pg) and Escherichia coli (E.coli); Pig-origin strain: Mycoplasma hyopneumoniae (Mh), Hemophilus pleuropneumonia (H.pp) and Bordetella bronchiseptica (B.br); Fish-origin strain: Pasteurella piscicida (P.pis) and Streptococcus sp (Str.sp); others: Escherichia coli (E. coli), Salmonella typhimurium (S.typhi) and Staphylococcus aureus (S.au).
# (§2) Of these bacteria, the strains belonging to MG, MS and Mh were cultured at 37°C for 7 days by a liquid dilution method, of which the culture medium comprised: 12 % horse-serum added "PPLO" (agar manufactured by Difco) medium for MG; 12 % pig-serum, 0.01 % βNAD (nicotinamide adenine dinucleotide) added Frey medium for MS; 0.5 % lactoalbumin added Hank's solution, 10 % horse-serum, 0.5 % yeast extract (25 %) for Mh, and the agar dilution method was applied to the strains belonging to H.pg, H.pp, S.typhi, E.coli, S.au and B.br. Specifically, the H.pg strain was cultured in a 5 % chicken-serum added chicken bouillon medium and the H.pp strain was cultured in a heart infusion agar added with 10 % sheep defibered blood and 0.05 % βNAD. In case of the H.pg and P.pp strains, observation was made after cultivation at 37°C for 20 hours under 10 % CO₂. Mueller Hinton agar (Difco) was used for the strains belonging to S.typhi, E.coli, S.au and B.br, and observation was made after cultivation at 37°C for 20 to 24 hours. P.pis and Str.sp, both being of fish-origin, were respectively cultured at 25°C for 40 to 48 hours in a 1.5 % NaCl added heart infusion agar and in a sensitive disk medium.
# [2] = system: Salmonella typhimurium (S.typhi) 13311; assay: In vitro sensitivity test (agar dilution method); assay type: cell-based; conditions: 37°C, 20 to 24 hours
# Protocol: as §1, §2
# [3] = system: Escherichia coli (E.coli) E-17, chicken-origin strain isolated from the field; assay: In vitro sensitivity test (agar dilution method); assay type: cell-based; conditions: 37°C, 20 to 24 hours
# Protocol: as §1, §2
# [4] = system: Hemophilus pleuropneumonia (H.pp) M-1; assay: In vitro sensitivity test (agar dilution method); assay type: cell-based; conditions: 37°C, 20 hours, 10 % CO₂
# Protocol: as §1, §2
# [5] = system: Hemophilus paragallinarum (H.pg) S-1; assay: In vitro sensitivity test (agar dilution method); assay type: cell-based; conditions: agar dilution, 37°C, 20 hours, 10 % CO₂
# Protocol: as §1, §2
# [6] = system: Staphylococcus aureus (S.au) 209P; assay: In vitro sensitivity test (agar dilution method); assay type: cell-based; conditions: 37°C, 20 to 24 hours
# Protocol: as §1, §2
# [7] = system: Hemophilus paragallinarum (H.pg) 221; assay: In vitro sensitivity test (agar dilution method); assay type: cell-based; conditions: agar dilution, 37°C, 20 hours, 10 % CO₂
# Protocol: as §1, §2
# [8] = system: Bordetella bronchiseptica (B.br) ABU-1; assay: In vitro sensitivity test (agar dilution method); assay type: cell-based; conditions: 37°C, 20 to 24 hours
# Protocol: as §1, §2
# [9] = system: TS-resistant strain of MG; assay type: in vivo, chicken; conditions: for Infectious index Left air sack + / Infectious index Left air sack ++ / Infectious index Left air sack +++ / Infectious index Left air sack - / Infectious index Right air sack + / Infectious index Right air sack ++ / Infectious index Right air sack +++ / Infectious index Right air sack -: count of fowl
# [10] = system: Mycoplasma gallisepticum (MG) S6; assay: In vitro sensitivity test (liquid dilution method); assay type: cell-based; conditions: 37°C, 7 days
# Protocol: as §1, §2
# [11] = system: Mycoplasma hyopneumoniae (Mh) ST-11; assay: In vitro sensitivity test (liquid dilution method); assay type: cell-based; conditions: 37°C, 7 days
# Protocol: as §1, §2
# [12] = system: Streptococcus sp (Str.sp) SNO6119; assay: In vitro sensitivity test; assay type: cell-based; conditions: 25°C, 40 to 48 hours
# Protocol: as §1, §2
# [13] = system: Pasteurella piscicida (P.pis) No. 2; assay: In vitro sensitivity test; assay type: cell-based; conditions: 25°C, 40 to 48 hours
# Protocol: as §1, §2
# [14] = system: Mycoplasma gallisepticum (MG) T-7-T, TS-resistant strain isolated from the field; assay: In vitro sensitivity test (liquid dilution method); assay type: cell-based; conditions: 37°C, 7 days
# Protocol: as §1, §2
# [15] = oral 1.56 mg/kg, 9-days chicken, 2.2 x 10³ CFU/fowl
# [16] = oral 6.25 mg/kg, 9-days chicken, 2.2 x 10³ CFU/fowl
# [17] = oral 12.5 mg/kg, 9-days chicken, 2.2 x 10³ CFU/fowl
# [18] = oral 25.0 mg/kg, 9-days chicken, 2.2 x 10³ CFU/fowl
# [19] = oral 3.13 mg/kg, 10-days chicken, 1.2 x 10³ CFU/fowl
# [20] = oral 6.25 mg/kg, 10-days chicken, 1.2 x 10³ CFU/fowl
# [21] = oral 12.5 mg/kg, 10-days chicken, 1.2 x 10³ CFU/fowl
# [22] = oral 25.0 mg/kg, 10-days chicken, 1.2 x 10³ CFU/fowl
compound,measurement,setting,value
"CNC[C@@]12CCC[C@@H]1CN(c1c(Cl)cc3c(=O)c(C(=O)O)cn(C4CC4)c3c1Cl)C2.Cl (relative stereo) [I-10, 7-[(1R*,5S*)-1-methylaminomethyl-3-azabicyclo[3.3.0]octan-3-yl]-1-cyclopropyl-6,8-dichloro-1,4-dihydro-4-oxo-3-quinoline carboxylic acid hydrochloride]",In vitro Sensitivity Test E.coli JC-2,[1],0.78 µg/mL
same,In vitro Sensitivity Test S.typhi 13311,[2],0.78 µg/mL
same,In vitro Sensitivity Test E.coli E-17,[3],0.39 µg/ml
same,In vitro Sensitivity Test H.pp M-1,[4],0.78 µg/mL
same,In vitro Sensitivity Test H.pg S-1,[5],0.39 µg/mL
same,In vitro Sensitivity Test S.au 209P,[6],0.025 to 0.05 µg/mL
same,In vitro Sensitivity Test H.pg 221,[7],0.78 µg/mL
same,In vitro Sensitivity Test B.br ABU-1,[8],12.5 µg/mL
same,Infectious index Left air sack +,[9]; [15],0
same,Infectious index Left air sack ++,[9]; [15],0
same,Infectious index Left air sack +++,[9]; [15],0
same,Infectious index Left air sack -,[9]; [15],4
same,Infectious index Right air sack +,[9]; [15],2
same,Infectious index Right air sack ++,[9]; [15],0
same,Infectious index Right air sack +++,[9]; [15],1
same,Infectious index Right air sack -,[9]; [15],1
same,Infectious index Left air sack +,[9]; [16],1
same,Infectious index Left air sack ++,[9]; [16],0
same,Infectious index Left air sack +++,[9]; [16],0
same,Infectious index Left air sack -,[9]; [16],4
same,Infectious index Right air sack +,[9]; [16],2
same,Infectious index Right air sack ++,[9]; [16],2
same,Infectious index Right air sack +++,[9]; [16],0
same,Infectious index Right air sack -,[9]; [16],1
same,Infectious index Left air sack +,[9]; [17],0
same,Infectious index Left air sack ++,[9]; [17],0
same,Infectious index Left air sack +++,[9]; [17],0
same,Infectious index Left air sack -,[9]; [17],5
same,Infectious index Right air sack +,[9]; [17],0
same,Infectious index Right air sack ++,[9]; [17],0
same,Infectious index Right air sack +++,[9]; [17],0
same,Infectious index Right air sack -,[9]; [17],5
same,Infectious index Left air sack +,[9]; [18],0
same,Infectious index Left air sack ++,[9]; [18],0
same,Infectious index Left air sack +++,[9]; [18],0
same,Infectious index Left air sack -,[9]; [18],5
same,Infectious index Right air sack +,[9]; [18],0
same,Infectious index Right air sack ++,[9]; [18],0
same,Infectious index Right air sack +++,[9]; [18],0
same,Infectious index Right air sack -,[9]; [18],5
same,Number of fowl having air sack lesions,[9]; [15],3
same,Number of fowl having air sack lesions,[9]; [16],4
same,Number of fowl having air sack lesions,[9]; [17],0
same,Number of fowl having air sack lesions,[9]; [18],0
same,In vitro Sensitivity Test MG S6,[10],0.00625 µg/mL
same,In vitro Sensitivity Test Mh ST-11,[11],0.05 µg/mL
same,In vitro Sensitivity Test Str.sp SNO6119,[12],0.78 µg/mL
same,In vitro Sensitivity Test P.pis No. 2,[13],1.56 µg/mL
"CNC[C@@]12CCC[C@@H]1CN(c1cc3c(cc1F)c(=O)c(C(=O)O)cn3C1CC1)C2 (relative stereo) [I-1, 7-[(1R*,5S*)-1-methylaminomethyl-3-azabicyclo[3.3.0]octan-3-yl]-1-cyclopropyl-6-fluoro-1,4-dihydro-4-oxo-3-quinolinecarboxylic acid]",In vitro Sensitivity Test E.coli JC-2,[1],0.2 µg/mL
same,In vitro Sensitivity Test S.typhi 13311,[2],0.2 µg/mL
same,In vitro Sensitivity Test E.coli E-17,[3],0.2 µg/ml
same,In vitro Sensitivity Test H.pp M-1,[4],0.39 µg/mL
same,In vitro Sensitivity Test H.pg S-1,[5],0.78 µg/mL
same,In vitro Sensitivity Test S.au 209P,[6],0.025 µg/mL
same,In vitro Sensitivity Test H.pg 221,[7],0.78 µg/mL
same,In vitro Sensitivity Test B.br ABU-1,[8],12.5 µg/mL
same,Infectious index Left air sack +,[9]; [19],1
same,Infectious index Left air sack ++,[9]; [19],0
same,Infectious index Left air sack +++,[9]; [19],0
same,Infectious index Left air sack -,[9]; [19],4
same,Infectious index Right air sack +,[9]; [19],1
same,Infectious index Right air sack ++,[9]; [19],3
same,Infectious index Right air sack +++,[9]; [19],1
same,Infectious index Right air sack -,[9]; [19],0
same,Infectious index Left air sack +,[9]; [20],0
same,Infectious index Left air sack ++,[9]; [20],0
same,Infectious index Left air sack +++,[9]; [20],0
same,Infectious index Left air sack -,[9]; [20],5
same,Infectious index Right air sack +,[9]; [20],3
same,Infectious index Right air sack ++,[9]; [20],1
same,Infectious index Right air sack +++,[9]; [20],0
same,Infectious index Right air sack -,[9]; [20],1
same,Infectious index Left air sack +,[9]; [21],0
same,Infectious index Left air sack ++,[9]; [21],0
same,Infectious index Left air sack +++,[9]; [21],0
same,Infectious index Left air sack -,[9]; [21],5
same,Infectious index Right air sack +,[9]; [21],0
same,Infectious index Right air sack ++,[9]; [21],1
same,Infectious index Right air sack +++,[9]; [21],0
same,Infectious index Right air sack -,[9]; [21],4
same,Infectious index Left air sack +,[9]; [22],0
same,Infectious index Left air sack ++,[9]; [22],0
same,Infectious index Left air sack +++,[9]; [22],0
same,Infectious index Left air sack -,[9]; [22],5
same,Infectious index Right air sack +,[9]; [22],0
same,Infectious index Right air sack ++,[9]; [22],0
same,Infectious index Right air sack +++,[9]; [22],0
same,Infectious index Right air sack -,[9]; [22],5
same,antimicrobial activity compared with ERFX,"[9]; in vivo, po",nearly equal potency to ERFX
same,Number of fowl having air sack lesions,[9]; [19],5
same,Number of fowl having air sack lesions,[9]; [20],4
same,Number of fowl having air sack lesions,[9]; [21],1
same,Number of fowl having air sack lesions,[9]; [22],0
same,In vitro Sensitivity Test MG T-7-T,[14],0.025 µg/mL
same,In vitro Sensitivity Test MG S6,[10],0.0125 µg/mL
same,In vitro Sensitivity Test Str.sp SNO6119,[12],0.78 µg/mL
same,In vitro Sensitivity Test P.pis No. 2,[13],0.78 µg/mL
